# Measured values published in US9670195B2, “Glycosidase inhibitors and uses thereof” (Alectos Therapeutics Inc., priority 2012, dated 2017).
# pKi: −log10 of the molar value.
# Biological target: human O-GlcNAcase (Homo sapiens (Human), UniProt O60502)
# Test: Assay for determination of KI values for inhibition of O-GlcNAcase activity (fluorescence-based)
# Type: biochemical
# Conditions: purified human O-GlcNAcase, 4-Methylumbelliferyl N-acetyl-β-D-glucosaminide substrate, pH 7.0, Cheng-Prusoff; read-out: Fluorescence-based hOGA Ki
# Procedure: Assay for Determination of KI Values for Inhibition of O-GlcNAcase Activity
# Experimental Procedure for Kinetic Analyses:
# Enzymatic reactions are carried out in a reaction containing 50 mM NaH2PO4, 100 mM NaCl and 0.1% BSA (pH 7.0) using 2 mM 4-Methylumbelliferyl N-acetyl-β-D-glucosaminide dihydrate (Sigma M2133) dissolved in ddH2O, as a substrate. The amount of purified human O-GlcNAcase enzyme used in the reaction is 0.7 nM. Test compound of varying concentrations is added to the enzyme prior to initiation of the reaction. The reaction is performed at room temperature in a 96-well plate and is initiated with the addition of substrate. The production of fluorescent product is measured every 60 sec for 45 min with a Tecan Infinite M200 plate-reader with excitation at 355 nm and emission detected at […], with 4-Methylumbelliferone (Sigma M1381) used to produce a standard curve. The slope of product production is determined for each concentration of compound tested and plotted, using standard curve fitting algorithms for sigmoidal dose response curves. The values for a four parameter logistic curve fit of the data are determined.
# KI values are determined using the Cheng-Prusoff equation; the Km of O-GlcNAcase for substrate is 0.2 mM.
# human O-GlcNAcase, sequence (O60502 whole entry): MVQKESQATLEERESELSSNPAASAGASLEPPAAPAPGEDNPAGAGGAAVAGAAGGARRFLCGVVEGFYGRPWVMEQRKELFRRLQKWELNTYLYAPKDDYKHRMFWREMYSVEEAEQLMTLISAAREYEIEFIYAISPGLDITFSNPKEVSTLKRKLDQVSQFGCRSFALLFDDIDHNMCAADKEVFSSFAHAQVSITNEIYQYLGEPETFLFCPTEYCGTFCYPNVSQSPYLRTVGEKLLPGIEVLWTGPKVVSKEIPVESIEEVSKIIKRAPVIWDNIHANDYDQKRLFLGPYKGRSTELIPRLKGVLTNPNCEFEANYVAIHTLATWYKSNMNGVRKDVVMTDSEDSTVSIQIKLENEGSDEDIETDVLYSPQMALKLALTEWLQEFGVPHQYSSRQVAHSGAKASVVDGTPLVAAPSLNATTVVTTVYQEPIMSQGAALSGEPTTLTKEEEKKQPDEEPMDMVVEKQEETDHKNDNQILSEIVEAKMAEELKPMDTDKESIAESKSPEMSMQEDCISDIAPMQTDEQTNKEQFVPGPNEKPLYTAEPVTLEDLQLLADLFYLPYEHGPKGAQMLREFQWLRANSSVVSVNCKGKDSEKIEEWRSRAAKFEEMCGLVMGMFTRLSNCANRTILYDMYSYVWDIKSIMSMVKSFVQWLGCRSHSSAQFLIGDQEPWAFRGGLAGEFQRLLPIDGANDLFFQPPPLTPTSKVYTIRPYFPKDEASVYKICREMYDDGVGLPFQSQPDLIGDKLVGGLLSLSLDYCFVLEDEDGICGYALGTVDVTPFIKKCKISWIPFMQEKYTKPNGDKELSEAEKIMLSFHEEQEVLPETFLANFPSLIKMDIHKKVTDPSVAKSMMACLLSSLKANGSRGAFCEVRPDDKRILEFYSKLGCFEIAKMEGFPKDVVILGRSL
row,pKi,Structure (SMILES)
1,5.23,CC(=O)N[C@H]1CN[C@@H](CO)[C@@H]1O
2,4.78,"CC(=O)N[C@H]1CN(CCCc2ccccc2)[C@@H](CO)[C@@H]1O [Example 1, N-((3S,4R,5S)-4-hydroxy-5-(hydroxymethyl)-1-(3-phenylpropyl)pyrrolidin-3-yl)acetamide]"
3,4.82,CCCCN1C[C@H](NC(C)=O)[C@@H](O)[C@@H]1CO
